Like-named read-outs stand apart in the source and are kept apart here.
Experiments:
HDAC6 [1] = target: T1, HDAC6 (Homo sapiens (Human), UniProt Q9UBN7); experiment: biochemical
HDAC1 = HDAC1 (Homo sapiens (Human), UniProt Q13547); experiment: HDAC enzyme assay, HDAC1; conditions: for HDAC1 fold over HDAC6 IC50 (selectivity for HDAC6): ratio HDAC1/HDAC6
HDAC2 = HDAC2 (Homo sapiens (Human), UniProt Q92769); experiment: HDAC enzyme assay, HDAC2; conditions: for HDAC2 fold over HDAC6 IC50 (selectivity for HDAC6): ratio HDAC2/HDAC6
Sequence of HDAC2 (Q92769 whole entry): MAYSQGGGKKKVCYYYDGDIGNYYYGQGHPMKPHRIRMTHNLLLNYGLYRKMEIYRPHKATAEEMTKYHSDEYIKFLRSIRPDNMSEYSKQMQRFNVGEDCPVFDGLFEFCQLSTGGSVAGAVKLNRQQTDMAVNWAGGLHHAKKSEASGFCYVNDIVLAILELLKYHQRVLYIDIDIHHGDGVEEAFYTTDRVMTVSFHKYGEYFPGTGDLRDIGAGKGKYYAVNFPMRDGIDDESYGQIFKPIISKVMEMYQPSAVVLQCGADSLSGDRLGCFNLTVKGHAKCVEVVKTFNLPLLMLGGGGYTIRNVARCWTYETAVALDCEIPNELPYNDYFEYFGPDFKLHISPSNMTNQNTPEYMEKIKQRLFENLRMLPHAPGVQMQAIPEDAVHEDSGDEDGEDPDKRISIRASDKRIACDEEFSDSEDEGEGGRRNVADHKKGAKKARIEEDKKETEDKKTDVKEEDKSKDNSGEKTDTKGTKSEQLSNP

HDAC3 = HDAC3 (Homo sapiens (Human), UniProt O15379); experiment: HDAC enzyme assay, HDAC3; conditions: for HDAC3 fold over HDAC6 IC50 (selectivity for HDAC6): ratio HDAC3/HDAC6
Sequence of HDAC3 (O15379 whole entry): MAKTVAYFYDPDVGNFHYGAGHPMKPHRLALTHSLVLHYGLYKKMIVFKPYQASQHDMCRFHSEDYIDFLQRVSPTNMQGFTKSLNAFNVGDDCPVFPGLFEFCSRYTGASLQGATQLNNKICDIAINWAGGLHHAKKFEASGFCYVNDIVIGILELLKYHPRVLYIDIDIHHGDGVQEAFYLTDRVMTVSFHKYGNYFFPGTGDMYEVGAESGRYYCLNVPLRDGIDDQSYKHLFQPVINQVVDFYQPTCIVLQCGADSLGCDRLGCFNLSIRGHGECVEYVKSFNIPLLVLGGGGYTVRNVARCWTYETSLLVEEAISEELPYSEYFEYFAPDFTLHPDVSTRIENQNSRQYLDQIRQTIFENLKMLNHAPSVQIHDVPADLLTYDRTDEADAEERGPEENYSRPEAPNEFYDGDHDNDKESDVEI
Sequence of HDAC3 (Q9Y618 395-489 partner): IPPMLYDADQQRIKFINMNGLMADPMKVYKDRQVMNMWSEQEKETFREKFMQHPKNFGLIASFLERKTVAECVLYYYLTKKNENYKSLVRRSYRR

HDAC6 [2] = target: T1, HDAC6; conditions: read-out: HDAC6 IC50
refractory relapsed MM = conditions: 202 patients with refractory relapsed MM; cited from earlier work

T1 sequence (Q9UBN7 whole entry): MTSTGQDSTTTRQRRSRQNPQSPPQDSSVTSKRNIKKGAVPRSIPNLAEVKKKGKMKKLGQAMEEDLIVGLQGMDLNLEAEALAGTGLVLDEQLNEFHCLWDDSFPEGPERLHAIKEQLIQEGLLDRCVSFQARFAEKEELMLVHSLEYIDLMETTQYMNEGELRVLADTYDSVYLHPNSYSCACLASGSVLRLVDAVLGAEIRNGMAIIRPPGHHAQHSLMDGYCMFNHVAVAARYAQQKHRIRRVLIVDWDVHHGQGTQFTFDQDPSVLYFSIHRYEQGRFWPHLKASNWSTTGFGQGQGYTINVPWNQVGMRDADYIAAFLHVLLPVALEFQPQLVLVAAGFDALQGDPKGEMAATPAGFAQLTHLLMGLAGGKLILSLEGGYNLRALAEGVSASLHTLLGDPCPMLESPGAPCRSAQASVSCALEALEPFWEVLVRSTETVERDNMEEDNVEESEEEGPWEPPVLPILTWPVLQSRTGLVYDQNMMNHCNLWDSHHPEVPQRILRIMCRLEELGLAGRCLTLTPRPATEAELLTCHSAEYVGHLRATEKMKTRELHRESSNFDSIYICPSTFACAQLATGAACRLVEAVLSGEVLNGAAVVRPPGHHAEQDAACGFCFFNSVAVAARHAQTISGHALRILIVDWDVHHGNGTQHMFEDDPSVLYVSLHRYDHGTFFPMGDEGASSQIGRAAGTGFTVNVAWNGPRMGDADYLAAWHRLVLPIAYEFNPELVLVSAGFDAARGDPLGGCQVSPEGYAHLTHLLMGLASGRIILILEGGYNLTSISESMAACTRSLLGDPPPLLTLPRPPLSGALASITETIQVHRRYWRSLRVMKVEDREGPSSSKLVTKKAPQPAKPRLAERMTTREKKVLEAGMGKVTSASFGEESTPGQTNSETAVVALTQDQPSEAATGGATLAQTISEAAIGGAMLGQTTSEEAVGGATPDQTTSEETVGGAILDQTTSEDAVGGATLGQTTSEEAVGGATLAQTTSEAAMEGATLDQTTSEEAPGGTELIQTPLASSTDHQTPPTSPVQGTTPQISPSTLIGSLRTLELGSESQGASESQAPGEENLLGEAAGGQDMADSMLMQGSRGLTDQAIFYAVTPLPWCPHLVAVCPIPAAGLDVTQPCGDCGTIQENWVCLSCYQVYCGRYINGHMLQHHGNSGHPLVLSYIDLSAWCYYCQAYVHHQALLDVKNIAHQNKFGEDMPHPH
Sequence of HDAC1 (Q13547 whole entry): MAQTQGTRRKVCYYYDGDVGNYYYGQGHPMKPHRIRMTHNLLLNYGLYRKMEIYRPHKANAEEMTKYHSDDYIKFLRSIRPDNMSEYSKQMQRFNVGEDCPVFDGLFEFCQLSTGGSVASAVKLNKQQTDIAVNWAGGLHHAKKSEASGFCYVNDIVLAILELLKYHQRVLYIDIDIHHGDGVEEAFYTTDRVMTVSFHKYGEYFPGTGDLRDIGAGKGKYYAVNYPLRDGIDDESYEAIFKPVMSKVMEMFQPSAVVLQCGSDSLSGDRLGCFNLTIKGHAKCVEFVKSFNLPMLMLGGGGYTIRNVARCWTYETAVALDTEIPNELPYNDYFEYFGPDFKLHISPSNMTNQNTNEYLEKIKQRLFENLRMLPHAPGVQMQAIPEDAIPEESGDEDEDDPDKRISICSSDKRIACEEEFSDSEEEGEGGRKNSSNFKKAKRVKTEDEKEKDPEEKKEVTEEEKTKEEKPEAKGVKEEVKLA

Row | IC50 (HDAC6 [1]) | IC50 (HDAC1) | HDAC1 fold over HDAC6 IC50 (selectivity for HDAC6) (HDAC1) | IC50 (HDAC2) | HDAC2 fold over HDAC6 IC50 (selectivity for HDAC6) (HDAC2) | IC50 (HDAC3) | HDAC3 fold over HDAC6 IC50 (selectivity for HDAC6) (HDAC3) | IC50 (HDAC6 [2]) | IC50 (HDAC1; read-out: HDAC1 IC50) | IC50 (HDAC2; read-out: HDAC2 IC50) | IC50 (HDAC3; read-out: HDAC3 IC50) | Structure (SMILES) | complete and near complete responses (refractory relapsed MM) | patients did not respond (refractory relapsed MM) | responses (refractory relapsed MM)
1 | 2 nM | 19 nM | (8.3x) | 28 nM | (12.1x) | 37 nM | (16.4x) |  |  |  |  | COc1ccc(C2(Nc3ncc(C(=O)NO)cn3)CC2)cc1 [Compound 97] |  |  | 
2 |  |  | (263.9x) |  | (307.8x) |  | (647.4x) | 5 nM | 1370 nM | 1600 nM | 3360 nM | O=C(NO)c1cnc(NC2(c3cccs3)CCCCC2)nc1 [Compound 154] |  |  | 
3 |  |  | (37.9x) |  | (34x) |  | (176x) | 7 nM | 262 nM | 236 nM | 1220 nM | O=C(NO)c1cnc(NC2(c3cc(F)cc(F)c3)CCOCC2)nc1 [Compound 155] |  |  | 
4 |  |  |  |  |  |  |  |  |  |  |  | CC(C)C[C@H](NC(=O)[C@H](Cc1ccccc1)NC(=O)c1cnccn1)B(O)O [bortezomib] | 10% | 65% | 35%
